The source of these data is PMC12148480 (The Journal of Biological Chemistry, 2025).

Entries after “also recorded” stand apart in the source; their conditions may differ.

The target in data set [1] is CaMKIIα. Particulars: CaMKIIα binding assays previously reported; cited from earlier work.
For data set [2] the following is noted: cited from earlier work.
In data set [3] the target is T1, CaMKIIβ L467W/C533R (Rattus norvegicus, UniProt P08413, C533R/L467W).
T1 construct: host or cells: HEK293T whole-cell homogenate
T1 sequence (P08413 whole entry L467W/C533R): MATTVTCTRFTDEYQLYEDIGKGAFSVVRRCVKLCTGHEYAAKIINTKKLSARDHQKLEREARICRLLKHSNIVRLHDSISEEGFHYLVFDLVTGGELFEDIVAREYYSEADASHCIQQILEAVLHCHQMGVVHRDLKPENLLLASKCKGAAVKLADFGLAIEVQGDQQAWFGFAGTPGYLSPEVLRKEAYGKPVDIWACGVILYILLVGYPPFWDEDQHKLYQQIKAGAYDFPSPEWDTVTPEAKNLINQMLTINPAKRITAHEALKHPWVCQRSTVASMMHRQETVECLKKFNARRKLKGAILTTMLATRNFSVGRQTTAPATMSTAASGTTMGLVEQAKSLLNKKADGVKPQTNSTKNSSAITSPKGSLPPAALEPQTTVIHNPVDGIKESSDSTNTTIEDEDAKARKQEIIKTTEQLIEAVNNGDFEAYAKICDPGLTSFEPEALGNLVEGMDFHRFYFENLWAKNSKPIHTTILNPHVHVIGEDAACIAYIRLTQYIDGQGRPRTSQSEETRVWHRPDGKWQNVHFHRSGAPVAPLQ
Kind of data set: Displacement of [3H]O-5-HDC binding in CaMKIIβ L467W/C533R HEK293T homogenate. On the procedure: (§1) Recombinant HEK293T whole-cell homogenate equilibrium binding experiments were performed similar to that described previously ([14]), using a 48-well assay format. […] The binding reaction was terminated by precipitation with ice-cold acetone (1 h at −20 °C), and radioligand-bound protein was separated from free radioligand by vacuum-filtration through glass fibre (GF/C) filters. Counts (disintegrations per minute [DPM]) were detected by liquid scintillation counting ([14]). Counts for CaMKIIα WT typically ranged from 2000 to 6000 DPM with [^3H]HOCPCA and 1800 to 5000 DPM with [^3H]O-5-HDC, slightly lower for the CaMKIIβ […] mutant. All experiments were performed in technical triplicates using at least three different batches of HEK293T cell homogenates.
(§2) Data analysis: The specific binding was determined as Total binding subtracted NSB. For the pooling of data from recombinant binding, the specific binding of the variant was normalized to the specific binding of CaMKIIα WT within each experiment.
Specific binding (% of control)=Top-Bottom1+10(log(IC50-[compound]))
where top and bottom represent the upper and lower plateaus of the curve, respectively.
In general terms: In a radioligand displacement assay an active substance lowers the binding of a labelled ligand.

In data set [4] the test system is CaMKIIα. To be noted: cited from earlier work.
The test system of data set [5] is ischemia. Particulars: several mouse models of ischemia; cited from earlier work.
For data set [6], the target named is native CaMKIIα (rat cortical homogenate) (Rattus norvegicus, UniProt P11275). Nature of the data set: Competitive inhibition of [3H]O-5-HDC binding, rat cortical homogenate. Set-up: native CaMKIIα (rat cortical homogenate); from tissue; host or cells: rat cerebral cortex homogenate. The text has this:
Ki values were obtained from the One Site-Fit Ki model utilizing the following Cheng-Prusoff equation: […]
Where [RL] represents the specific radioligand concentration from each experiment and KD is the dissociation constant of [^3H]O-5-HDC acquired from saturation curves.

Data set [7] has as its target CaMKIIα (rat cortical homogenate). To be noted: inhibition of [3H]HOCPCA binding, ref 1 (Leurs et al., PNAS 2021); read-out: Comparative Ki, [3H]HOCPCA binding; cited from earlier work.
Data set [8] has as its target CaMKIIα-W403L hub protein. Set-up: method as in PMID 39275999. To be noted: SPR, purified CaMKIIα-W403L hub; cited from earlier work.
In data set [9] the target is CaMKIIα-WT hub protein. Set-up: method as in PMID 39275999. To be noted: SPR, purified CaMKIIα-WT hub; cited from earlier work. Background: SPR reads the build-up and loss of mass on a sensor chip optically.
The target in data set [10] is T2, CaMKIIα R453Q (Rattus norvegicus, UniProt P11275, R453Q).
T2 construct: host or cells: HEK293T whole-cell homogenate
T2 sequence (P11275 whole entry R453Q): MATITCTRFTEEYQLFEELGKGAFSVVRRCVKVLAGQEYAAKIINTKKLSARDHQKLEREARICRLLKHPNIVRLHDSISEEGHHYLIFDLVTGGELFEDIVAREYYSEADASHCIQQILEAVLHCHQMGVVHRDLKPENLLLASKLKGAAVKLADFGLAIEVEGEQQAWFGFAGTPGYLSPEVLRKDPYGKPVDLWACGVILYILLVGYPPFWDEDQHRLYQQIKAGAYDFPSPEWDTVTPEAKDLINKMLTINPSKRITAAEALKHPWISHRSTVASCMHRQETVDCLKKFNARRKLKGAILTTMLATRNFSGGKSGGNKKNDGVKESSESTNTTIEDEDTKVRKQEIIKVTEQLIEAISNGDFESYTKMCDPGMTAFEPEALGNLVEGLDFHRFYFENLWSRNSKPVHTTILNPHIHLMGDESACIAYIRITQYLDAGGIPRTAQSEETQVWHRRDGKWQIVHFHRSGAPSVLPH
Nature of the data set: [3H]HOCPCA binding, HEK293T whole-cell homogenate, CaMKIIα R453Q. Particulars: normalized to CaMKIIα WT. The protocol:
as §1, §2

Data set [11] has as its target T3, CaMKIIα H395A (Rattus norvegicus, UniProt P11275, H395A).
T3 construct: host or cells: HEK293T whole-cell homogenate
Kind of data set: [3H]HOCPCA binding, HEK293T whole-cell homogenate, CaMKIIα H395A. To be noted: normalized to CaMKIIα WT. The protocol:
as §1, §2

The target of data set [12] is T4, CaMKIIγ C518R (Rattus norvegicus, UniProt P11730, C518R).
T4 construct: host or cells: HEK293T whole-cell homogenate
T4 sequence (P11730 whole entry C518R): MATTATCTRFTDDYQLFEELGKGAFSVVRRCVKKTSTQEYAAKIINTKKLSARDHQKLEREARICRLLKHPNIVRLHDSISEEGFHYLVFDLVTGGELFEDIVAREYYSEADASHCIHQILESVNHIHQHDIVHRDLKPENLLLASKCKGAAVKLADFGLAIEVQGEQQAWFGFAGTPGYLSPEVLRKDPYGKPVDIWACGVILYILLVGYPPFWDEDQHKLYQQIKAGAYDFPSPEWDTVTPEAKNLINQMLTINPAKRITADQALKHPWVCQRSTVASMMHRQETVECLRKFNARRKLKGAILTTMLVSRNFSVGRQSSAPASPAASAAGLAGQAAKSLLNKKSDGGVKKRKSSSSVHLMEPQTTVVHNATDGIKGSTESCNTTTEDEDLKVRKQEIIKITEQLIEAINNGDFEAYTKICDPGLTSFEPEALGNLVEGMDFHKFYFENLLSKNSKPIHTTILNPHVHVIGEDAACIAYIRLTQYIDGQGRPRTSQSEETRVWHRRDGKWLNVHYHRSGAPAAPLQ
Kind of data set: [3H]HOCPCA binding, HEK293T whole-cell homogenate, CaMKIIγ C518R. The protocol:
as §1, §2

Data set [13] addresses T1, CaMKIIβ L467W/C533R. Nature of the data set: [3H]HOCPCA binding, HEK293T whole-cell homogenate, CaMKIIβ L467W/C533R. On the procedure:
as §1, §2

The target of data set [14] is T5, CaMKIIα W403L (Rattus norvegicus, UniProt P11275, W403L).
T5 construct: host or cells: HEK293T whole-cell homogenate
T5 sequence (P11275 whole entry W403L): as the sequence (P11275 whole entry R453Q) above, with W403L, Q453R counted along it
Nature of the data set: [3H]HOCPCA binding, HEK293T whole-cell homogenate, CaMKIIα W403L. Particulars: p = 0.0038. On the procedure: as §1, §2

For data set [15], the target named is T6, CaMKIIβ L467W (Rattus norvegicus, UniProt P08413, L467W).
T6 construct: host or cells: HEK293T whole-cell homogenate
T6 sequence (P08413 whole entry L467W): as the sequence (P08413 whole entry L467W/C533R) above, with R533C counted along it
Nature of the data set: [3H]HOCPCA binding, HEK293T whole-cell homogenate, CaMKIIβ L467W. The protocol: as §1, §2

In data set [16] the test system is CaMKIIα (rat cortical homogenate). Also noted: method as in earlier work. To be noted: comparative value, [3H]HOCPCA binding, ref 1 (Leurs et al., PNAS 2021); cited from earlier work.
In data set [17] the target is T7, CaMKIIα R433Q (Rattus norvegicus, UniProt P11275, R433Q).
T7 construct: host or cells: HEK293T whole-cell homogenate
T7 sequence (P11275 whole entry R433Q): as the sequence (P11275 whole entry R453Q) above, with R433Q, Q453R counted along it
Kind of data set: [3H]HOCPCA binding, HEK293T whole-cell homogenate, CaMKIIα R433Q. Particulars: 40 nM radioligand. On the procedure: as §1, §2

Data set [18] concerns the target T8, CaMKIIβ WT (Rattus norvegicus, UniProt P08413).
T8 construct: host or cells: HEK293T whole-cell homogenate
Kind of data set: [3H]HOCPCA binding, HEK293T whole-cell homogenate, CaMKIIβ WT. The protocol:
as §1, §2

The target in data set [19] is T9, CaMKIIβ C533R (Rattus norvegicus, UniProt P08413, C533R).
T9 construct: host or cells: HEK293T whole-cell homogenate
T9 sequence (P08413 whole entry C533R): as the sequence (P08413 whole entry L467W/C533R) above, with W467L counted along it
Nature of the data set: [3H]HOCPCA binding, HEK293T whole-cell homogenate, CaMKIIβ C533R. The protocol:
as §1, §2

The target in data set [20] is T10, CaMKIIα R469Q (Rattus norvegicus, UniProt P11275, R469Q).
T10 construct: host or cells: HEK293T whole-cell homogenate
T10 sequence (P11275 whole entry R469Q): as the sequence (P11275 whole entry R453Q) above, with Q453R, R469Q counted along it
Kind of data set: [3H]HOCPCA binding, HEK293T whole-cell homogenate, CaMKIIα R469Q. To be noted: 40 nM radioligand. On the procedure:
as §1, §2

The target of data set [21] is T11, CaMKIIα R433Q/R453Q/R469Q (Rattus norvegicus, UniProt P11275, R433Q/R453Q/R469Q).
T11 construct: host or cells: HEK293T whole-cell homogenate
T11 sequence (P11275 whole entry R433Q/R453Q/R469Q): as the sequence (P11275 whole entry R453Q) above, with R433Q, R469Q counted along it
Nature of the data set: [3H]HOCPCA binding, HEK293T whole-cell homogenate, CaMKIIα triple mutant. Particulars: CaMKIIα triple mutant RRR433/453/469QQQ. On the procedure:
as §1, §2

For data set [22], the target named is T12, rat brain cortical homogenates (Rattus norvegicus, UniProt P11275).
T12 construct: from tissue; host or cells: rat brain cortical homogenate
T12 sequence (P11275 whole entry): as the sequence (P11275 whole entry R453Q) above, with Q453R counted along it
Nature of the data set: [3H]NCS-382 binding to rat brain cortical homogenates.

native CaMKIIα (rat cortical homogenate), sequence (P11275 whole entry): as the sequence (P11275 whole entry R453Q) above, with Q453R counted along it
T3 sequence (P11275 whole entry H395A): as the sequence (P11275 whole entry R453Q) above, with H395A, Q453R counted along it
T8 sequence (P08413 whole entry): as the sequence (P08413 whole entry L467W/C533R) above, with W467L, R533C counted along it

As usually defined, the Ki is the dissociation constant of the complex between target and ligand, obtained from inhibition or displacement. For `O=C(O)Cc1cc(O)ccc1Oc1ccccc1Cl`, the Ki in [1] was 27 nM.

On to `O=C(O)Cc1cc(O)ccc1Nc1c(Cl)cccc1Cl` [5-HDC, 5-hydroxydiclofenac], for which the chemical stability result in data set [2] is listed as “chemically unstable”.

A word on the IC50: it is the midpoint of a concentration-inhibition curve. On to `O=C(O)CCCO` [GHB, γ-hydroxybutyric acid], for which the IC50 was 710000 nM in data set [3] (IC50, displacement of [3H]O-5-HDC) and 676000 nM in [3] (pIC50 (value in parentheses after IC50), displacement of [3H]O-5-HDC). Further, the “effect on CaMKIIα activity (syntide-2 phosphorylation)” value in data set [4] is on record as “not to affect CaMKIIα activity”. Further, the neuroprotection entry in [5] was “neuroprotective”. For the same molecule, in data set [6] (rat cortical homogenate), the “lower affinity in displacing [3H]O-5-HDC than [3H]HOCPCA” value worked out at 10 fold.

In the case of `O=C(O)C1=CC(O)CC1` (stereo not drawn) [HOCPCA, 3-hydroxycyclopent-1-enecarboxylic acid], in data set [4], the “effect on CaMKIIα activity (syntide-2 phosphorylation)” value is on record as “not to affect CaMKIIα activity”. Moreover, the neuroprotection entry in data set [5] was “neuroprotective”. The Ki in data set [7] is 130 nM; in [6] (Ki) it was 1270 nM; in data set [6] (pKi ± S.E.M., inhibition of [3H]O-5-HDC binding, rat cortical homogenate, n = 4), 1170 nM. For the same molecule, the “lower affinity in displacing [3H]O-5-HDC than [3H]HOCPCA” value in data set [6] (rat cortical homogenate) came out at 10 fold.

By Kd is commonly meant the equilibrium constant for the complex coming apart. For `O=C(O)Cc1cn2nc(-c3ccc(Cl)cc3)ccc2n1` [PIPA], the figures for the Kd in [8] and in data set [9] were 2800 nM and 1400 nM, respectively.

Turning to `[3H]C1(O)C=C(C(=O)O)CC1` (stereo not drawn) [[^3H]HOCPCA], the “specific [3H]HOCPCA binding remaining” value in data set [10] and in [11] was 7–9% each time. Further, the “specific [3H]HOCPCA binding” value in data set [12] was “no specific binding”; in [13], “no detected specific [^3H]HOCPCA binding; also recorded: Neither of these led to any noticeable radioligand binding”; in data set [14] it was 70 % of WT; in data set [15], “no detected specific [^3H]HOCPCA binding; also recorded: Neither of these led to any noticeable radioligand binding”; in data set [17] it was “completely abolished”; in data set [18] it was “no detected specific [^3H]HOCPCA binding”. Besides, the “specific [3H]HOCPCA binding” value in [19] is reported as “no specific binding”; in data set [20], “completely abolished”; in data set [21], “completely binding-deficient”. Besides, the Bmax in data set [16] was 43 pmol/mg protein. Besides, in [16], the Kd is 260 nM. For the same molecule, the “pKd ± SEM” value in [16] is listed as 6.6 ± 0.06.

In the case of `O=C(O)Cc1cc(O)c(I)cc1Oc1ccccc1Cl` [compound 1], in data set [22], the affinity result is listed as “mid-micromolar” and the “change in affinity in comparison to O-5-HDC” value is given as 100 X.

For the molecule `O=C(O)Cc1c(Oc2ccccc2Cl)cc(I)c(O)c1I` [compound 2], in [22], the affinity result is listed as “mid-micromolar” and the “change in affinity in comparison to O-5-HDC” value was 100 X.
